{
  "source": "ChEMBL document CHEMBL5465560",
  "about": "“Selectivity Literature for EUbOPEN Chemogenomic Library” (2024)",
  "key": {"[1]": {"biological_target": "T1, Serine/threonine-protein kinase DCLK2 (Homo sapiens) (UniProt Q8N568)", "T1 sequence (whole entry)": "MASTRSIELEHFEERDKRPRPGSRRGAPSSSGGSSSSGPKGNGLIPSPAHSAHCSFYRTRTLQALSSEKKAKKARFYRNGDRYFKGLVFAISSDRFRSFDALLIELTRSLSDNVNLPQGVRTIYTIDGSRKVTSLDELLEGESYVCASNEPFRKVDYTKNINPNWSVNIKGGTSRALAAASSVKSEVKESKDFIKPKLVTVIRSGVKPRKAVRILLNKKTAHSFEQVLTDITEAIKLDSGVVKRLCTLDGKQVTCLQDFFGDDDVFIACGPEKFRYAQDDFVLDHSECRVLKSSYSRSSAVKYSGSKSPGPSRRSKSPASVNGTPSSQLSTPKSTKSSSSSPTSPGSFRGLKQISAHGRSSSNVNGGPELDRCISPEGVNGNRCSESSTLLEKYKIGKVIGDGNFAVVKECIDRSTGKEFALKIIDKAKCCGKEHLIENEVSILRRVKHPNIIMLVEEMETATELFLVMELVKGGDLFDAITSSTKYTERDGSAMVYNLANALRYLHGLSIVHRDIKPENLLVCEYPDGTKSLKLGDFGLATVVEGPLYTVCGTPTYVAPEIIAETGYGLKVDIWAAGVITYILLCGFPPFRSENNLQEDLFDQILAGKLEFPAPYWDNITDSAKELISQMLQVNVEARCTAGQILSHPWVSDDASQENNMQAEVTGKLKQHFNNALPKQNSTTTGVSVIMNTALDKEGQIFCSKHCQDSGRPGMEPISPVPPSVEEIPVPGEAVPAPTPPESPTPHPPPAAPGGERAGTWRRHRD", "test": "Selectivity interaction (KinomeScan (DiscoverX)) EUB0000607a DCLK2", "conditions": "at 10 µM"}, "[2]": {"biological_target": "T2, Serine/threonine-protein kinase LATS1 (Homo sapiens) (UniProt O95835)", "T2 sequence (whole entry)": "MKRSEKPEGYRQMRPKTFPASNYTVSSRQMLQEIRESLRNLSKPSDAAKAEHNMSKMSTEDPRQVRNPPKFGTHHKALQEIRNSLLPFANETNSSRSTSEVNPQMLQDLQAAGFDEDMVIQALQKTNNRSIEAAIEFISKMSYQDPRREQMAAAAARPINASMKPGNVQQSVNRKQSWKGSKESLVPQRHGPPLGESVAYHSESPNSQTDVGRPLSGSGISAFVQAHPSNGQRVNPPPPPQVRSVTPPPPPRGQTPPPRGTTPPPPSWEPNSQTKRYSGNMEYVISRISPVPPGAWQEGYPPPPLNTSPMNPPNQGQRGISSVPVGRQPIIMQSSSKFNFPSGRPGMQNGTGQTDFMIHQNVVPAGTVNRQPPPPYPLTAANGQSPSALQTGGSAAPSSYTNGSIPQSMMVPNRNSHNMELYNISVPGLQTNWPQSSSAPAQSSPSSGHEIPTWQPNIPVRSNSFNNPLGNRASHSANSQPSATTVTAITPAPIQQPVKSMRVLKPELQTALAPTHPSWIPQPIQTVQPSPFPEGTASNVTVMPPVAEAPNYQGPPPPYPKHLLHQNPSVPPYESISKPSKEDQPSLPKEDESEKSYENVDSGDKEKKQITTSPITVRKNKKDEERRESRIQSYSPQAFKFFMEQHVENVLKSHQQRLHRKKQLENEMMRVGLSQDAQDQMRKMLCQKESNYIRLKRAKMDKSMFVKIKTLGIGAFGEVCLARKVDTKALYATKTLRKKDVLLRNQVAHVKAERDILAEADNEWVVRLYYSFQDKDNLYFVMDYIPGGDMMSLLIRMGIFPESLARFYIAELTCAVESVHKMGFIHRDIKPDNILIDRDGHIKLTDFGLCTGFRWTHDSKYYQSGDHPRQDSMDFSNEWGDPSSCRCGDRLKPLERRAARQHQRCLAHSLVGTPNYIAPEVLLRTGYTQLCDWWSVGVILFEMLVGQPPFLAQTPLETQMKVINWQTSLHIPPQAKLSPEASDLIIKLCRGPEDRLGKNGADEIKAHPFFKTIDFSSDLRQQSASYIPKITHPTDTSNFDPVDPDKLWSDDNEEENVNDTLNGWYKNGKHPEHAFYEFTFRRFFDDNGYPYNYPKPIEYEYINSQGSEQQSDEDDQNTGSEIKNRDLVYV", "test": "Selectivity interaction (ActivX KiNativ screen (kinase selectivity in THP-1 cell lysates)) EUB0000639a LATS1", "format": "subcellular", "conditions": "lysate, at 5 µM"}, "[3]": {"biological_target": "Casein kinase I isoform delta (Homo sapiens, UniProt P48730)", "sequence (P48730 whole entry, looked up, canonical isoform)": "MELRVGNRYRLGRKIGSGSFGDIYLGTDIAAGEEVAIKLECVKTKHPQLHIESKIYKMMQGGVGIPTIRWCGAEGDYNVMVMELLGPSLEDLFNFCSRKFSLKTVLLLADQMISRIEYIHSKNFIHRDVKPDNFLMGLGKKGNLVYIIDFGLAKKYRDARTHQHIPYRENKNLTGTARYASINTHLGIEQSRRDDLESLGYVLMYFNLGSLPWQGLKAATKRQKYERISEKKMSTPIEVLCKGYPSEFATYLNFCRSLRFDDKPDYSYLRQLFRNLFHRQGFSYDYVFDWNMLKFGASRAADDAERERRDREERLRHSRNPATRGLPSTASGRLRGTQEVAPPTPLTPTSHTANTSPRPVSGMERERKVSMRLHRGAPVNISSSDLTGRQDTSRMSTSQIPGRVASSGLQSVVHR", "test": "Selectivity interaction (KinomeScan (DiscoverX)) EUB0000655a CSNK1D", "conditions": "at 10 µM"}, "[4]": {"biological_target": "Rho-associated protein kinase 2 (Homo sapiens, UniProt O75116)", "sequence (O75116 whole entry, looked up)": "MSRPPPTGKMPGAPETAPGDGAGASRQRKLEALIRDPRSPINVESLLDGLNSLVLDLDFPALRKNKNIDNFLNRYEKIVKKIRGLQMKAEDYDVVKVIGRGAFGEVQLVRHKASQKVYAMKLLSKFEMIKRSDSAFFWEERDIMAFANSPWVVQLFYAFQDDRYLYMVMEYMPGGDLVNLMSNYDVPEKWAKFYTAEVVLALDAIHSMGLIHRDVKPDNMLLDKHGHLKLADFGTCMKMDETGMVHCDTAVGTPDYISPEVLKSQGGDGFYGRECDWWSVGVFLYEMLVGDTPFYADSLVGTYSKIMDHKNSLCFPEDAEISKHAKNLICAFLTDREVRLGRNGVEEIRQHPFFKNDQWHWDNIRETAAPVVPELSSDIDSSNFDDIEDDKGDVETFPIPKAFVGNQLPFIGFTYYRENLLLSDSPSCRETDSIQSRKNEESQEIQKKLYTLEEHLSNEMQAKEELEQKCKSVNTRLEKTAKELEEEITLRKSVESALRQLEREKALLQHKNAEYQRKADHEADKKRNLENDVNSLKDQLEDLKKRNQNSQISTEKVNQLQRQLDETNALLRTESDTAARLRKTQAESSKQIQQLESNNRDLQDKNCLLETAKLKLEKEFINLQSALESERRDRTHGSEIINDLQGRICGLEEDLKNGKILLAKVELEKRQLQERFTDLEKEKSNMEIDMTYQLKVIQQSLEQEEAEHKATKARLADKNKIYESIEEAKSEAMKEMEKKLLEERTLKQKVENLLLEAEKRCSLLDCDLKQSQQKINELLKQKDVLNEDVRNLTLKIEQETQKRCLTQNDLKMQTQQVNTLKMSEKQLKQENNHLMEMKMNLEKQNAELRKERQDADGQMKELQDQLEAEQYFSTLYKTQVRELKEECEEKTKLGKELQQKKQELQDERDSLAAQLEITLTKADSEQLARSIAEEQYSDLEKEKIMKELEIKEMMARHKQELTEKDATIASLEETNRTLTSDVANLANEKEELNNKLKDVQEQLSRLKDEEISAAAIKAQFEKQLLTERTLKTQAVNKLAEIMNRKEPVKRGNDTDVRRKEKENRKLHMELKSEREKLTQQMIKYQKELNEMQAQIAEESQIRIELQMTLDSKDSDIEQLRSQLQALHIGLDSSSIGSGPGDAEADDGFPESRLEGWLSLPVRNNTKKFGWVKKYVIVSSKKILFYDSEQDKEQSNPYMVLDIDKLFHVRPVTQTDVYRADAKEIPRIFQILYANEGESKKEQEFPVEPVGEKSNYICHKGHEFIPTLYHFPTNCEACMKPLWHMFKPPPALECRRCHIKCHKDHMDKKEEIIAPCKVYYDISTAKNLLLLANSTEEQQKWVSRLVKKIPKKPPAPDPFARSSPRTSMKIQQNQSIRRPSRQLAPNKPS", "test": "Selectivity interaction (Ambit KINOMEscan and KiNATiv profiling in Jurkat cells) EUB0000090b ROCK2", "format": "cell-based", "conditions": "at 1 µM"}},
  "data": [
    {"smiles": "CNC(=O)Nc1ccc(-c2nc(N3CC4CCC(C3)O4)c3cnn(C4CCC5(CC4)OCCO5)c3n2)cc1", "values": [
      {"measurement": "% of control", "setting": "[1]", "value": 97, "unit": "%"}
    ]},
    {"smiles": "CC[C@@H]1[C@H](F)C(=O)N[C@@H]1COc1nccc2cc(C(N)=O)c(OC)cc12", "note": "[ZIMLOVISERTIB]", "values": [
      {"measurement": "% of inhibition", "setting": "[2]", "value": -31.2, "unit": "%"}
    ]},
    {"smiles": "CN(C)CCOc1ccc(-c2nc(-c3ccncc3)c(-c3ccc4c(c3)CC/C4=N\\O)[nH]2)cc1", "values": [
      {"measurement": "% of control", "setting": "[3]", "value": 4, "unit": "%"}
    ]},
    {"smiles": "CN(C)C/C=C/C(=O)Nc1ccc(C(=O)N2CCCC(Nc3ncc(Cl)c(-c4c[nH]c5ccccc45)n3)C2)cc1", "note": "(centres undefined)", "values": [
      {"measurement": "% of control", "setting": "[4]", "value": 69, "unit": "%"}
    ]}
  ]
}
